Source: PubChem BioAssay (NCI)
Where “and” joins values, the source holds several entries; their conditions need not be identical. Equal entries are not always repeated.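 Dose response: 5 concentrations. Exposure: 48 h. Format: 96-well plates. Endpoint: linear interpolation; highest concentration if not reached. Abbreviation: GI50, concentration required for 50% inhibition of growth. Definition used: TGI = concentration required for complete inhibition of growth.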

Key:
Experiment in all cases: DTP human tumour cell line panel, 48 h
EKVX NSCLC = system: EKVX NSCLC
K-562 leukemia = system: K-562 leukemia
MDA-MB-231 breast = system: MDA-MB-231 breast
NCI-H522 lung = system: NCI-H522 lung
OVCAR-3 ovarian = system: OVCAR-3 ovarian
OVCAR-4 ovarian = system: OVCAR-4 ovarian
SF-268 CNS = system: SF-268 CNS
SF-539 CNS = system: SF-539 CNS
U251 CNS = system: U251 CNS
UACC-257 melanoma = system: UACC-257 melanoma

| SMILES | GI50 (EKVX NSCLC) | TGI (EKVX NSCLC) | GI50 (K-562 leukemia) [µM] | TGI (K-562 leukemia) | GI50 (MDA-MB-231 breast) | TGI (MDA-MB-231 breast) [µM] | GI50 (NCI-H522 lung) | TGI (NCI-H522 lung) | GI50 (OVCAR-3 ovarian) [µM] | TGI (OVCAR-3 ovarian) | GI50 (OVCAR-4 ovarian) | TGI (OVCAR-4 ovarian) | GI50 (SF-268 CNS) [µM] | TGI (SF-268 CNS) | GI50 (SF-539 CNS) | TGI (SF-539 CNS) | GI50 (U251 CNS) | TGI (U251 CNS) | GI50 (UACC-257 melanoma) | TGI (UACC-257 melanoma) |
| --- | --- | --- | --- | --- | --- | --- | --- | --- | --- | --- | --- | --- | --- | --- | --- | --- | --- | --- | --- | --- |
| C[C@@H]1CN(Cc2ccc(F)cc2)[C@@H](C)CN1C(=O)c1cc2c(C(=O)C(=O)N(C)C)cn(C)c2cc1Cl | 20.7 µM | 89.8 µM | 20.8 | 88.6 µM | 14.9 µM | 32.7 | 15.8 µM | 43.4 µM | 18.7 | 39.2 µM | 22.1 µM | > 90.3 µM | 18.5 | 46.1 µM | 14.9 µM | 29.7 µM | 17.4 µM | 46.1 µM | 15.7 µM | 34.7 µM |
| N#Cc1c(N2CCOCC2)nc(=S)[nH]c1-c1ccco1 | 5.99 µM | 78.7 µM | 24.7 | > 100 µM | 4.63 µM | > 100 | 3.95 µM | > 100 µM | 7.93 | 49.8 µM | 16.9 µM | > 100 µM | 10.9 | > 100 µM | 6.34 µM | 69.9 µM | 20.2 µM | > 100 µM | 22.4 µM | > 100 µM |
| CC1=C2[C@@H](CC1)[C@]1(C)O[C@@](c3ccccc3)(C[C@H]1OC(=O)CO)[C@H]2OC(=O)/C=C/c1ccccc1 | 7.99 µM | 41.4 µM | 14 | 61.9 µM | 19.2 µM | 49.5 | 16.8 µM | 45.4 µM | 15 | 30.6 µM | 15.2 µM | 43 µM | 2.78 | 32.5 µM | 16.9 µM | 35.8 µM | 13.9 µM | 28.1 µM | 22.6 µM | 49.9 µM |
| COc1ccccc1-c1cc(=O)c2cc(C)cnc2[nH]1 |  | > 100 µM |  | 61.3 µM |  | > 100 |  | > 100 µM | 19.5 | 60.2 µM |  | > 100 µM |  | > 100 µM |  | > 100 µM | 27.8 µM | > 100 µM |  | > 100 µM |
| COc1cc2c(c(OC)c1OC)-c1ccc(SC)c(=O)cc1C(NC(=O)c1ccccc1)CC2 (stereo not given) |  | > 100 µM |  | > 68.1 µM |  | 1.77 |  | < 0.0316 µM |  | < 0.01 µM |  | 22.2 µM |  | 53.3 µM |  | 0.0922 µM |  | 4.18 µM |  | 18.4 µM |
| c1cnn2ncc(-c3ccnc(NCCCN4CCOCC4)n3)c2c1 | 6.67 µM | > 25 µM | > 22.4 | > 25 µM | 8.04 µM | > 25 | 10.6 µM | > 25 µM | 6.16 | > 21.9 µM | 11 µM | > 25 µM | 6.39 | > 23.3 µM | 6.18 µM | 18.7 µM | 7.18 µM | > 25 µM | 6.68 µM | > 22.1 µM |
| COc1cccc(OC(=O)c2ccc(C(F)(F)F)nc2Nc2cc(Cl)ccc2C)c1 | 6.6 µM | 39.3 µM | 3.13 | 9.36 µM | 2.76 µM | 15.7 | 10 µM | 71.3 µM | 22.9 | 46.8 µM | > 100 µM | > 100 µM | 4.38 | > 100 µM | 8.75 µM | 32 µM | 8.13 µM | > 100 µM | 13.3 µM | 54.8 µM |
| Cc1ccc(/C=N\NC(=O)c2[nH]c3ccc(F)cc3c2-c2ccccc2)cc1 | 0.0691 µM | > 100 µM | 0.038 | 15.5 µM | 0.0283 µM | 0.129 | 0.014 µM | 0.569 µM | 0.0261 | 0.0782 µM | 0.147 µM | > 100 µM | 0.23 | 42.5 µM | 0.0297 µM | 0.965 µM | 0.0378 µM | > 58.9 µM | 0.493 µM | > 100 µM |
| O=C(Nc1ccc(OCc2nnc(-c3ccc(Cl)cc3)o2)c(F)c1)Nc1ccc(Cl)c(C(F)(F)F)c1 | 2.64 µM | 10.4 µM | 2.94 | 12.6 µM | 2.35 µM | 7.64 | 2.27 µM | 7.04 µM | 1.7 | 5.01 µM | 2.02 µM | 7.59 µM | 3.33 | 12.5 µM | 1.91 µM | 4.34 µM | 1.88 µM | 5.03 µM | 2.71 µM | 11.1 µM |
| CN[C@@H](C)C(=O)N[C@H](C(=O)N1CCC[C@H]1C(=O)Nc1sc(-c2ncco2)nc1-c1ccccc1)C1CCCCC1 | 42.9 µM | > 100 µM | 24.7 | 63.6 µM | 0.425 µM | 17.2 | 10.2 µM | 28.1 µM | 38.7 | > 100 µM | 3.26 µM | > 100 µM | 99.7 | > 100 µM | 0.957 µM | 17.8 µM | 26.9 µM | > 77.7 µM | 17.5 µM | 34 µM |
| O=C1CCC(N2Cc3cc(CNC(=O)C(F)(F)c4ccc(Cl)cc4)ccc3C2=O)C(=O)N1 (stereo not given) | > 100 µM | > 100 µM | > 96.3 | > 100 µM | 0.0679 µM | > 100 | > 66.1 µM | > 100 µM | > 100 | > 100 µM | 1.48 µM | > 100 µM | > 100 | > 100 µM | > 100 µM | > 100 µM | > 100 µM | > 100 µM | > 100 µM | > 100 µM |
| O=C1OCC2=C1C(c1ccccc1)c1cc3c(cc1N2)OCO3 (stereo not given) | 2.29 µM | > 100 µM |  | 32.7 µM | 0.046 µM | > 74.7 | < 0.011 µM | 1.56 µM | 0.0202 | 0.0486 µM | 0.0823 µM | > 48.3 µM | 0.0654 | > 43.4 µM | 0.0318 µM | 9.3 µM | 0.0409 µM | > 50.1 µM | 4.58 µM | > 100 µM |
| Nc1nc(OCc2ccccc2)c2[nH]cnc2n1 | 64.1 µM and 32.3 µM | 307 µM and 274 µM | 46.4 | 400 µM and 307 µM | 36.5 µM and 31.5 µM | 163 | 23.6 µM and 16.5 µM | 135 µM and 69.4 µM | 33.9 | 400 µM and 284 µM | 41.2 µM and 43.4 µM | 365 µM and 528 µM | 53.2 | 400 µM and 574 µM | 30 µM and 31.4 µM | 266 µM and 154 µM | 37.9 µM and 35.9 µM | 400 µM and 204 µM | 39.8 µM and 157 µM | 400 µM and 736 µM |
| CN(C)CCCn1c(=O)c2ccccc2c2ccccc21 | 13.6 µM | 44.9 µM | 21.8 | > 100 µM | 22.3 µM | 62.7 | 12.5 µM | 30.6 µM | 20.4 | 52.4 µM | 22.3 µM | 70.5 µM | 15.6 | 41.4 µM | 11.8 µM | 28.8 µM | 13.8 µM | 78.5 µM | 12.6 µM | 26.6 µM |
| CCCN(CCS(C)(=O)=O)Cc1ccc(-c2ccc3ncnc(Nc4ccc(OCc5cccc(F)c5)c(Cl)c4)c3c2)o1 | 0.195 µM | > 25 µM | 9.49 | > 25 µM | > 25 µM | > 25 | 0.525 µM | > 25 µM | > 22.9 | > 25 µM | 21.3 µM | > 25 µM | > 25 | > 25 µM | > 25 µM | > 25 µM | > 25 µM | > 25 µM | > 25 µM | > 25 µM |
| Fc1ccc(/C=N/n2c(-c3ccc(F)c(Cl)c3)nn(CNc3ccccc3C(F)(F)F)c2=S)cc1 | 37.2 µM | > 100 µM | 37.6 | > 100 µM | 67 µM | > 100 | 24.4 µM | 76.3 µM | 53.9 | > 100 µM | 57.4 µM | > 100 µM | > 100 | > 100 µM | 93.2 µM | > 100 µM | 69.1 µM | > 100 µM | 42.5 µM | > 100 µM |
| Cc1cc(S(=O)(=O)/N=C(/N)Nc2ccccc2O)c(SCc2ccccc2)cc1Cl | 11 µM | 37.8 µM | 10.2 | > 100 µM | 14.8 µM | 32.2 | 9.68 µM | 27.1 µM | 14.5 | 34.1 µM | 11.4 µM | 34.9 µM | 13.4 | 45.4 µM | 10.4 µM | 24.7 µM | 14.9 µM | 30.5 µM | 14.6 µM | 30.4 µM |
| OCC12C3C4C5C3C1C5C42 (stereo not given) |  | > 100 µM |  | > 100 µM |  | > 100 |  | > 100 µM |  | > 100 µM |  | > 100 µM |  | > 100 µM |  | > 100 µM |  | > 100 µM |  | > 100 µM |
| O=C1c2cccnc2C(=O)c2c1c(C(=O)NCCCN1CCCCC1)c1ccccn21 | 1.37 µM | 3.2 µM | 1.22 | > 100 µM | 0.562 µM | 7.23 | 1.08 µM | 3.45 µM | 0.321 | 1.75 µM | 0.31 µM | 1.32 µM | 1.25 | 8.3 µM | 1.47 µM | 3.07 µM | 1.42 µM | 3.21 µM | 0.813 µM | 2.18 µM |
| N#CC1(C(N)=O)C(c2ccc(Cl)cc2)CC(=O)CC1c1ccc(Cl)cc1 (stereo not given) | 15.5 µM | 32.7 µM | 31.4 | > 100 µM | 13.8 µM | 28.9 | 14.2 µM | 29.5 µM | 15.8 | 33.4 µM | 17.5 µM | 35.6 µM | 18.5 | 34.3 µM | 18.4 µM | 34.5 µM | 16.6 µM | 31.6 µM | 17.5 µM | 36 µM |
| COc1ccc(-c2[nH]c3ccccc3c2-c2ccc(OC)cc2)cc1 | 5.05 µM | 42.9 µM | 2.89 | 10.4 µM | 4.69 µM | 23.5 | 12 µM | 40.7 µM | 2.18 | 5.27 µM | 7.66 µM | 23.6 µM | 3.99 | 15.1 µM | 3.05 µM | 10.4 µM | 4.54 µM | 16.8 µM | 7.22 µM | 23.2 µM |
| O=C1c2ccccc2-c2cc([N+](=O)[O-])c([N+](=O)[O-])cc21 |  | 4.11 µM |  | 8.04 µM |  | 3.33 |  | 2.99 µM |  | 1.01 µM |  | 3.31 µM |  | 5.13 µM |  | 1.03 µM |  | 2.93 µM |  | 2.74 µM |
| O=C(/C=C/c1cc2ccccc2[nH]c1=O)/C=C/c1cc2ccccc2[nH]c1=O | 22.5 µM | > 100 µM | > 23.1 | > 100 µM | 15.4 µM | > 100 |  | > 47 µM | 12.1 | > 63.5 µM | 19.2 µM | > 100 µM | 18 | 99.7 µM | 9.13 µM | > 75.9 µM | 4.53 µM | 12.1 µM | 8.32 µM | 19.6 µM |
| O=C1OC(=O)C(=C\c2ccc3c(c2)OCO3)/C1=C/c1ccc2c(c1)OCO2 |  | > 100 µM |  | > 100 µM |  | > 100 |  | > 100 µM |  | > 100 µM |  | > 100 µM |  | > 100 µM |  | > 100 µM |  | > 100 µM |  | > 100 µM |
